Assay results taken from patent publication US12692232B2, “Indole carboxamide compound, preparation therefor and use thereof” (NANJING RUISHUNING MEDICAL TECHNOLOGY CO., LTD., priority 2021, dated 2026).

Columns and labels:
[1] = test system: H22 liver subcutaneous transplanted tumor; assay: Mouse model of H22 liver subcutaneous transplanted tumor; format: in vivo
Protocol: The method was as follows:
Experimental procedure: H22 hepatoma cell suspension was adjusted to 1×10^7/mL after dilution and counting with normal saline, and 0.2 mL per mouse was inoculated on the back of the mice. After 24 hours, the mice were weighed and administered drug at a dose of 0.1 mL/10 g once a day, wherein the mice in the solvent control group and the treatment groups were administered 0.9% sodium chloride solution and the compound of the present invention, respectively, for 14 days, and the mice in the CTX group were injected intraperitoneally for 14 days. The mice were weighed after 14 days. The animals were executed and the tumor blocks were removed and weighed separately. The tumor inhibition rate was calculated according to the following formula: tumor inhibition rate (%)=(1−average tumor weight in a treatment group/average tumor weight in the solvent control group)×100%.

[2] = test system: mouse model of renal fibrosis (UUO); assay: Mouse model of renal fibrosis (unilateral ureteral obstruction, UUO); format: in vivo; details: for urea nitrogen level: model 17.56±0.48; for serum creatinine level: model 32.48±0.87; for urine protein level: model 888.5±264.8; for extent of renal fibrosis, pathological staining (H&E, Masson, Sirius red): FIG. 2, control compound 25 mg/kg, losartan 50 mg/kg; for body weight compared with the UUO model group / kidney weight compared with the UUO model group: gavage once daily 14 days, not statistically different (P>0.05)
Protocol: The therapeutic effect of the compounds of the present invention (as exemplified by Compound 1-1 obtained in Example 1) on renal fibrosis was determined using a mouse model of renal fibrosis. The method was as follows:
Grouping of animals: male C57BL/6J mice aged 8 weeks were given adaptive feeding for 3 days and grouped into a sham operation group, a sham operation-treatment group, a Unilateral ureteral obstruction (UUO) model group, a low-dose (10 mg/kg) treatment group, a medium-dose (25 mg/kg) treatment group, a high-dose (50 mg/kg) treatment group, a medium-dose (25 mg/kg) treatment group of indole analogue 3-[(1-methyl-1H-indole-2-carbonyl)amino]propionic acid disclosed in CN2019107285315, and a positive control group of losartan (50 mg/kg), with 10 animals in each group. Mice in the model and the treatment groups were anesthetized by intraperitoneal injection of 0.5% sodium pentobarbital at a dose of 0.1 mL/10 g. The mice were fixed on the operating table and cut open in layers from the right side of the mid-abdomen to locate the left kidney, and the ends of the ureter were ligated, while the ureter was cut off between the two ligations; the sham operation group was operated as described above and the ligations were not performed. Post-operative organs were repositioned, sutured, and sterilized with iodophor after suturing was completed. Immediately after operation, the drug was administered by gavage once daily for 14 days. Urine sample collection: animals were placed in separate metabolic cages by group on days 0, 5, 10 and 14 after modelling, without food or water, and urine samples were collected from each group of mice.
The protein levels in urine were determined using Coomassie brilliant blue (CBB) method by using urine protein quantitative test kit (Nanjing Jiancheng Bioengineering Institute). CBB working solution was prepared according to the kit instructions. 0.05 mL of each urine sample was mixed with 3 mL of CBB working solution, the mixture was left to stand for 5 min, and the absorbance value of each sample was determined at 595 nm. The protein levels in each group of urine samples were calculated according to the protein standardization formula: urine protein levels (mg/L)=(measured OD−blank OD)/(standard OD−blank OD)×563 mg/L.
Collection of serum sample: orbital blood from each mouse was collected in an EP tube, placed at 37° C. for 20 minutes, and centrifuged to obtain the upper layer of serum.
Collection of plasma sample: orbital blood from each mouse was collected in an anticoagulation tube, mixed well and stored at 4° C. for later use.
Determination of creatinine levels in urine and serum by the picric acid colorimetric method: creatinine levels in urine and serum were determined by using the creatinine test kit (Nanjing Jiancheng Bioengineering Institute). According to the kit instructions, 1.5 mL of urine sample or serum sample and 0.5 mL of picric acid solution, 0.5 mL of 0.5 mol/L sodium hydroxide solution were mixed, heated in water bath at 37° C. for 10 minutes. The absorbance value of each sample was determined using a UV spectrophotometer at a wavelength of 510 nm. Creatinine levels in samples of each group were calculated according to the formula: creatinine level (μmol/L) in serum or urine=(measured OD value−blank OD value)/(standard OD value−blank OD value)×50 μmol/L×(dilution ratio 201).
Determination of urea nitrogen level in plasma by diacetyl monoxime method: urea nitrogen level was determined was determined by using blood urea nitrogen (BUN) test kit (Nanjing Jiancheng Bioengineering Institute). According to the kit instructions, 0.05 mL of anticoagulated plasma samples were mixed with 1 mL of oxime solution and 1 mL of acid working solution, and the mixtures were placed in a boiling water bath for 15 min. A UV-visible spectrophotometer was used to determine the absorbance values of each tube at a wavelength of 520 nm. […]

Row | SMILES | tumor inhibition rate ([1]; 25 mg/kg once a day 14 days) [%] | creatinine level reduced compared with the model group ([2]; 25 mg/kg gavage 14 days) [%] | urea nitrogen level reduced compared with the model group ([2]; 25 mg/kg gavage 14 days) [%] | urine protein level reduced compared with the model group ([2]; 25 mg/kg gavage 14 days) [%] | urea nitrogen level ([2]; 25 mg/kg gavage 14 days) [mmol/L] | serum creatinine level ([2]; 25 mg/kg gavage 14 days) [µmol/L] | urine protein level ([2]; 25 mg/kg gavage 14 days) [mg/L] | extent of renal fibrosis, pathological staining (H&E, Masson, Sirius red) [2] | body weight compared with the UUO model group [2] | kidney weight compared with the UUO model group [2] | also measured
1 | Cn1c(C(=O)NCCC(=O)O)cc2ccccc21 [3-[(1-methyl-1H-indole-2-carbonyl)amino]propionic acid, reference compound] | 52.8 | 18.3 | 20.6 | 30.1 | 13.94 ± 0.42 | 26.52 ± 0.86 | 621 ± 81.3 | shows less improvement in fibrotic tissue proliferation and renal tubular lumen dilation | slight increase in body weight | slight decrease in kidney weight | 
2 | CC(=O)OCCCNC(=O)c1c(C=O)c2ccccc2n1C [compound 1-1, propyl 3-[(3-formyl-1-methyl-1H-indole-2-carbonyl)amino]acetate] | 60.5 | 20.7 | 30.0 | 37.7 | 12.30 ± 0.33 | 25.76 ± 1.31 | 554 ± 143 | significantly attenuates tubular lumen dilatation and glomerular atrophy in a dose-dependent manner | slight increase in body weight | slight decrease in kidney weight | tumor inhibition rate ([1]; 50 mg/kg once a day 14 days): 69.4%; creatinine level reduced compared with the model group ([2]; 10 mg/kg gavage 14 days): 17.2%; urea nitrogen level reduced compared with the model group ([2]; 10 mg/kg gavage 14 days): 24.7%; urine protein level reduced compared with the model group ([2]; 10 mg/kg gavage 14 days): 27.4%; urea nitrogen level ([2]; 10 mg/kg gavage 14 days): 13.23 ± 0.62 mmol/L; serum creatinine level ([2]; 10 mg/kg gavage 14 days): 26.88 ± 0.86 µmol/L; urine protein level ([2]; 10 mg/kg gavage 14 days): 645 ± 165 mg/L; creatinine level reduced compared with the model group ([2]; 50 mg/kg gavage 14 days): 27.6%; urea nitrogen level reduced compared with the model group ([2]; 50 mg/kg gavage 14 days): 37.7%; urine protein level reduced compared with the model group ([2]; 50 mg/kg gavage 14 days): 52.6%; urea nitrogen level ([2]; 50 mg/kg gavage 14 days): 10.94 ± 0.42 mmol/L; serum creatinine level ([2]; 50 mg/kg gavage 14 days): 23.52 ± 0.86 µmol/L; urine protein level ([2]; 50 mg/kg gavage 14 days): 421 ± 82.3 mg/L
